{"source": "paper PMC2031891", "about": "“The cyclic nucleotide gated cation channel AtCNGC10 traffics from the ER via Golgi vesicles to the plasma membrane of Arabidopsis root and leaf cells” (BMC Plant Biology, 2007)", "molecular_target": "T1, AtCNGC10 (AtCNGC10-GFP) (Arabidopsis thaliana, UniProt Q9LNJ0)", "T1 construct": "gene CNGC10; full-length cDNA fused to EGFP (pNC10kozG) or to EGFP and FLAG (pTGC10F), transiently expressed in HEK293", "T1 sequence (Q9LNJ0 1-711)": "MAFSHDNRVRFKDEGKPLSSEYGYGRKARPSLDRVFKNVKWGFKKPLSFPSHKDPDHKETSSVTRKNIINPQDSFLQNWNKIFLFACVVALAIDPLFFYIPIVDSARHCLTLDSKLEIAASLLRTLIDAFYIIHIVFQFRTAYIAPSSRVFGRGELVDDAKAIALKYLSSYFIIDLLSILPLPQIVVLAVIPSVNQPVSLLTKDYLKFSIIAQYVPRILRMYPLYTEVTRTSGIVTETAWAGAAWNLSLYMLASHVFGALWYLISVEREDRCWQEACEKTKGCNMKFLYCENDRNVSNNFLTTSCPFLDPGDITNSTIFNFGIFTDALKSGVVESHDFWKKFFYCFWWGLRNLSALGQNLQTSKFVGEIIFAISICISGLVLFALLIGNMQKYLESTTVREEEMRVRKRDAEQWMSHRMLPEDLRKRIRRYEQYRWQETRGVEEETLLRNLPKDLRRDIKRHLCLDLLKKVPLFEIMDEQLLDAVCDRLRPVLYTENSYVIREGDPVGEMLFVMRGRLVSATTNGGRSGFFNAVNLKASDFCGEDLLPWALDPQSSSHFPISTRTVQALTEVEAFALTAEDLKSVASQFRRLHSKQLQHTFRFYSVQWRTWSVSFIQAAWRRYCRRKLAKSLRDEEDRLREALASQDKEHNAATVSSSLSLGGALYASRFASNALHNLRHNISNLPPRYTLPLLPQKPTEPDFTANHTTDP", "experiment": "whole-cell patch clamp, HEK293", "format": "cell-based", "conditions": "100 uM in bath; 145 mM K+ out / 145 mM N-methyl-D-glucamine in; pH 7.4 bath, 25 C; activator; control was non-transfected cells, no record without the nucleotide described", "data": [{"compound": "CCCC(=O)Nc1nc2c(ncn2[C@@H]2O[C@@H]3COP(=O)(O)O[C@H]3[C@H]2OC(=O)CCC)c(=O)[nH]1", "note": "[dibutyryl cGMP]", "values": [{"measurement": "whole-cell patch clamp, HEK293", "result": "heterologously expressed AtCNGC10 conducted significant inward K^+ currents with the application of dibutyryl cGMP"}]}]}
